For orientation: IC50 means the concentration that inhibits the measured activity by half.

The assay has as its target T1, human SLC6A19 (Homo sapiens, UniProt Q695T7).
T1 construct: expressed in transfected cells
T1 sequence (Q695T7 1-634): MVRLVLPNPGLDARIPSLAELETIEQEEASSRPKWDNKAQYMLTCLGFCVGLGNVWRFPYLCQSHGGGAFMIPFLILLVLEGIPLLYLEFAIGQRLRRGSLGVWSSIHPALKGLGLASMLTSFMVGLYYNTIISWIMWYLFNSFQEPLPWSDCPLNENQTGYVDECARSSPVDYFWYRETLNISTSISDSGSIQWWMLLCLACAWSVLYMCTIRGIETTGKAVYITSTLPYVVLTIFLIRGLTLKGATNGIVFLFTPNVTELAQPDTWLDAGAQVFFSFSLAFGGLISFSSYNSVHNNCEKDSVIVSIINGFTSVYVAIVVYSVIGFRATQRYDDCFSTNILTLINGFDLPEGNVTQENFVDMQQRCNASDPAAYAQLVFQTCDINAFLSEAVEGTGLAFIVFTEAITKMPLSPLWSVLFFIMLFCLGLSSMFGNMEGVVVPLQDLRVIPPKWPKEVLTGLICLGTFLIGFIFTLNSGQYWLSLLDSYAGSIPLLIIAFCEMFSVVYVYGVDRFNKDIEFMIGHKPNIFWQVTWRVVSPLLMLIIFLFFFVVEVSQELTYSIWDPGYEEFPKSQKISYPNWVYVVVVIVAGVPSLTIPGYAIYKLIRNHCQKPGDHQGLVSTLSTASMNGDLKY
T1 sequence (Q9HBJ8 15-222 partner): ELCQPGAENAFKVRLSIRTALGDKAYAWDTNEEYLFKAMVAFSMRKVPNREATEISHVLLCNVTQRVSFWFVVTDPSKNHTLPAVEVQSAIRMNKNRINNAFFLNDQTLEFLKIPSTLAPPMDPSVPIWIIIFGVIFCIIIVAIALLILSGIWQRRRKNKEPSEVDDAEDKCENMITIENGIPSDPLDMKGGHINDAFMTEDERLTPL
Nature of the assay: Example B2: 13C6,15N-isoleucine uptake, RapidFire mass spectrometry, in CHO cells with doxycycline-inducible expression of human SLC6A19 and TMEM27. It counts as cell-based. As to conditions: read-out: SLC6A19_RapidFire Uptake Assay IC50. On the procedure: Assay ready vials of CHO cells with doxycycline inducible expression of human SLC6A19 and TMEM27 were thawed, plated in T175 flasks containing DMEM/F12 media, 10% FBS, 100 Penicillin-Streptomycin, 1× UltraGlutamate, 1 mM Sodium Pyruvate, Sodium Bicarbonate (7.5 mL of 7.5% solution in 500 mL media final), […] Blasticidin, 150 µg/mL Hygromycin B Gold, and 500 µg/mL G418, and incubated (humidified, 37° C. with […]) for 48 hours. Media was then removed, flasks were washed with 20 mL of DPBS, and 5 mL of TryμLE™ Express was added to each flask to initiate cell dissociation. After 5 minutes, 10 mL of cell culture media was added to each flask and mixed. The cell suspension was collected and centrifuged for 5 minutes at 200×g. The supernatant was removed, and the pellet was resuspended in 10 mL of cell culture media. Resuspended cells were counted using a Vi-Cell. 30 μL/well (20,000 cells/well) of cell suspension was added to Poly-D-Lysine 384-well black/clear plates. Plates were incubated (humidified, 37° C. with 5% CO2) for 24 hours. To induce expression of human SLC6A19 and TMEM27, 10 μL of assay culture media containing 4 μg/mL doxycycline was added to each well. Assay plates were then incubated (humidified, 37° C. with 5% CO2) overnight. After incubation, the media was removed, and wells were washed 3 times with 40 μL of warmed DPBS. […] All compounds were plated in a duplicate 10-point dilution series that consisted of 2-fold dilutions. The plates were incubated (humidified, 37° C. with 5% CO2) with compound for 20 minutes. Afterwards, 20 μL/well of 2 mM 13C6,15N-1-isoleucine was added to each well and plates were incubated again (humidified, 37° C. with 5% CO2) for another 20 minutes. Assay buffer was then removed, and plates were washed. 70 μL/well of stop solution (75% acetonitrile, 25% HPLC grade water, 250 nM 1-leucine-1-13 C (RapidFire standard)) was added to each well. The plates were sealed and then placed in a −20° C. freezer for 20 minutes. The plates were thawed at room temperature for 20 minutes and then centrifuge for 20 minutes at 3000 rpm. Using an ABSciex API4000 mass spectrometer, processed samples were loaded onto the graphitic carbon SPE-column. The time for aspiration, load/wash, elution and re-equilibration time was 600, 1500, 3000 and 500 milliseconds, respectively. Peak areas were calculated using RapidFire Integrator software.

SMILES strings stand for the structures.

For the compound `CN(C(=O)NCc1cc2cc(Cl)ccc2[nH]1)[C@@H]1CCCN(C(=O)C(C)(O)C(F)(F)F)C1` (stereo partly drawn) [Compound 50, 3-((5-chloro-1H-indol-2-yl)methyl)-1-methyl-1-((3R)-1-(3,3,3-trifluoro-2-hydroxy-2-methylpropanoyl)piperidin-3-yl)urea], the IC50 was found to be 4770 nM.
With `CN(C(=O)NCc1cc2cc(Cl)ccc2[nH]1)[C@@H]1CCCN(C(=O)c2ccnn2C)C1` [Compound 51, (R)-3-((5-chloro-1H-indol-2-yl)methyl)-1-methyl-1-(1-(1-methyl-1H-pyrazole-5-carbonyl)piperidin-3-yl)urea] the figure was 4800 nM; with `CN(C(=O)NCc1cc2cc(Cl)ccc2[nH]1)[C@@H]1CCCN(C(=O)c2ccccc2)C1` [Compound 52, (R)-1-(1-benzoylpiperidin-3-yl)-3-((5-chloro-1H-indol-2-yl)methyl)-1-methylurea], 366 nM.
Regarding `CC(=O)NCC(=O)N1CCC[C@@H](N(C)C(=O)NCc2cc3cc(Cl)ccc3[nH]2)C1` [Compound 53, (R)-N-(2-(3-(3-((5-chloro-1H-indol-2-yl)methyl)-1-methylureido)piperidin-1-yl)-2-oxoethyl)acetamide], the IC50 worked out at 1630 nM.
As for `CN(C(=O)NCc1cc2cc(Cl)ccc2[nH]1)[C@@H]1CCCN(C(=O)c2ccn(C)n2)C1` [Compound 54, (R)-3-((5-chloro-1H-indol-2-yl)methyl)-1-methyl-1-(1-(1-methyl-1H-pyrazole-3-carbonyl)piperidin-3-yl)urea], the figure is 401 nM; as for `CN(C(=O)NCc1cc2cc(Cl)ccc2[nH]1)[C@@H]1CCCN(C(=O)c2cnn(C)c2)C1` [Compound 55, (R)-3-((5-chloro-1H-indol-2-yl)methyl)-1-methyl-1-(1-(1-methyl-1H-pyrazole-4-carbonyl)piperidin-3-yl)urea], 571 nM; as for `CN(C(=O)NCc1cc2cc(Cl)ccc2[nH]1)[C@@H]1CCCN(C(=O)CNC(=O)C(F)(F)F)C1` [Compound 56, (R)-N-(2-(3-(3-((5-chloro-1H-indol-2-yl)methyl)-1-methylureido)piperidin-1-yl)-2-oxoethyl)-2,2,2-trifluoroacetamide], 2460 nM.
With `CN(C(=O)NCc1cc2cc(Cl)ccc2[nH]1)[C@@H]1CCCN(C(=O)C2(C(F)(F)F)CC2)C1` [Compound 57, (R)-3-((5-chloro-1H-indol-2-yl)methyl)-1-methyl-1-(1-(1-(trifluoromethyl)cyclopropane-1-carbonyl)piperidin-3-yl)urea] the figure was 8640 nM; with `Cc1[nH]cnc1C(=O)N1CCC[C@@H](N(C)C(=O)NCc2cc3cc(Cl)ccc3[nH]2)C1` [Compound 58, (R)-3-((5-chloro-1H-indol-2-yl)methyl)-1-methyl-1-(1-(5-methyl-1H-imidazole-4-carbonyl)piperidin-3-yl)urea], 4050 nM.
As for `CN(C(=O)NCc1cc2cc(Cl)ccc2[nH]1)[C@@H]1CCCN(C(=O)Cc2ccn[nH]2)C1` [Compound 59, (R)-1-(1-(2-(1H-pyrazol-5-yl)acetyl)piperidin-3-yl)-3-((5-chloro-1H-indol-2-yl)methyl)-1-methylurea], the figure is 529 nM; as for `CN(C(=O)NCc1cc2cc(Cl)ccc2[nH]1)[C@@H]1CCCN(C(=O)C2CCC(=O)N2)C1` (stereo partly drawn) [Compound 60, 3-((5-chloro-1H-indol-2-yl)methyl)-1-methyl-1-((3R)-1-(5-oxopyrrolidine-2-carbonyl)piperidin-3-yl)urea], 7780 nM.
Turning to `CN(C(=O)NCc1cc2cc(Cl)ccc2[nH]1)[C@@H]1CCCN(C(=O)C2CCCO2)C1` (stereo partly drawn) [Compound 61, 3-((5-chloro-1H-indol-2-yl)methyl)-1-methyl-1-((3R)-1-(tetrahydrofuran-2-carbonyl)piperidin-3-yl)urea], the IC50 worked out at 542 nM.
With `CN(C(=O)NCc1cc2cc(Cl)ccc2[nH]1)[C@@H]1CCCN(C(=O)Cc2cnccn2)C1` [Compound 62, (R)-3-((5-chloro-1H-indol-2-yl)methyl)-1-methyl-1-(1-(2-(pyrazin-2-yl)acetyl)piperidin-3-yl)urea] the figure was 1350 nM; with `CN(C(=O)NCc1cc2cc(Cl)ccc2[nH]1)[C@@H]1CCCN(C(=O)c2ccc(O)cc2F)C1` [Compound 63, (R)-3-((5-chloro-1H-indol-2-yl)methyl)-1-(1-(2-fluoro-4-hydroxybenzoyl)piperidin-3-yl)-1-methylurea], 935 nM; with `CN(C(=O)NCc1cc2cc(Cl)ccc2[nH]1)[C@@H]1CCCN(C(=O)[C@H]2C[C@H](O)C2)C1` [Compound 64, trans-(R)-3-((5-chloro-1H-indol-2-yl)methyl)-1-(1-(3-hydroxycyclobutane-1-carbonyl)piperidin-3-yl)-1-methylurea], 651 nM.
As to `Cc1noc(CC(=O)N2CCC[C@@H](N(C)C(=O)NCc3cc4cc(Cl)ccc4[nH]3)C2)n1` [Compound 65, (R)-3-((5-chloro-1H-indol-2-yl)methyl)-1-methyl-1-(1-(2-(3-methyl-1,2,4-oxadiazol-5-yl)acetyl)piperidin-3-yl)urea], the IC50 amounted to 973 nM.
For `CN(C(=O)NCc1cc2cc(Cl)ccc2[nH]1)[C@@H]1CCCN(C(=O)Cn2cccnc2=O)C1` [Compound 66, (R)-3-((5-chloro-1H-indol-2-yl)methyl)-1-methyl-1-(1-(2-(2-oxopyrimidin-1(2H)-yl)acetyl)piperidin-3-yl)urea], the IC50 was 4240 nM.
As for `CN(C(=O)NCc1cc2cc(Cl)ccc2[nH]1)[C@@H]1CCCN(C(=O)Cc2cccnc2)C1` [Compound 67, (R)-3-((5-chloro-1H-indol-2-yl)methyl)-1-methyl-1-(1-(2-(pyridin-3-yl)acetyl)piperidin-3-yl)urea], the IC50 stood at 887 nM.
With `CN(C(=O)NCc1cc2cc(Cl)ccc2[nH]1)[C@@H]1CCCN(C(=O)Cc2ccccn2)C1` [Compound 68, (R)-3-((5-chloro-1H-indol-2-yl)methyl)-1-methyl-1-(1-(2-(pyridin-2-yl)acetyl)piperidin-3-yl)urea] the figure was 417 nM; with `CN(C(=O)NCc1cc2cc(Cl)ccc2[nH]1)[C@@H]1CCCN(C(=O)c2onc3ccccc23)C1` [Compound 69, (R)-1-(1-(benzo[c]isoxazole-3-carbonyl)piperidin-3-yl)-3-((5-chloro-1H-indol-2-yl)methyl)-1-methylurea], more than 2810 nM.
As for `CC(C(=O)N1CCC[C@@H](N(C)C(=O)NCc2cc3cc(Cl)ccc3[nH]2)C1)n1cncn1` (stereo partly drawn) [Compound 70, 1-((3R)-1-(2-(1H-1,2,4-triazol-1-yl)propanoyl)piperidin-3-yl)-3-((5-chloro-1H-indol-2-yl)methyl)-1-methylurea], the figure is 3060 nM.
With `CCS(=O)(=O)CC(=O)N1CCC[C@@H](N(C)C(=O)NCc2cc3cc(Cl)ccc3[nH]2)C1` [Compound 71, (R)-3-((5-chloro-1H-indol-2-yl)methyl)-1-(1-(2-(ethylsulfonyl)acetyl)piperidin-3-yl)-1-methylurea] the figure was 6390 nM; with `CN(C(=O)NCc1cc2cc(Cl)ccc2[nH]1)[C@@H]1CCCN(C(=O)c2ccc3ocnc3c2)C1` [Compound 72, (R)-1-(1-(benzo[d]oxazole-5-carbonyl)piperidin-3-yl)-3-((5-chloro-1H-indol-2-yl)methyl)-1-methylurea], 1370 nM.

The values above are taken from US20260184693A1, “INHIBITORS OF SOLUTE CARRIER FAMILY 6A MEMBER 19 (SLC6A19) AND METHODS OF USE THEREOF” (Maze Therapeutics, Inc., priority 2022, published 2026).
